Assay results published in EP4603105A1, “PHARMACEUTICAL COMPOSITION CONTAINING CYCLIC COMPOUND HAVING SELECTIVE KRAS INHIBITORY EFFECT AGAINST HRAS AND NRAS” (CHUGAI SEIYAKU KABUSHIKI KAISHA, priority 2022, dated 2024).

What was measured:
[1] = target: GDP-bound NRAS wild-type protein (Homo sapiens, UniProt P01111); assay: Binding to NRAS by surface plasmon resonance (SPR), KD and KD ratio to KRAS; details: ratio of KD for GDP-bound NRAS wild-type protein to KD for KRAS
In short: (§1)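 SPR, 30°C: Avi-biotin RAS·GDP captured via Biotin CAPture (~100–300 RU); running buffer HBS pH 7.4, 1 mM DTT, 10 mM MgCl2, 0.01% Tween 20, 10 µM GDP, 4% DMSO. Single-cycle kinetics, 100 µL/min, 75 s injections; 1:1 model → KD.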

[2] = target: HRAS wild-type protein (Homo sapiens, UniProt P01112); assay: Binding to HRAS by surface plasmon resonance (SPR), KD and KD ratio to KRAS; details: ratio of KD for HRAS wild-type protein to KD for KRAS
In short: as §1

[3] = tested on: human lung cancer strain NCI-H441; assay type: cell-based
In short: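 Proliferation was scored by […] measured after the reagent was added to cultures kept at 37°C in 5% carbon dioxide.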

GDP-bound NRAS wild-type protein, sequence (P01111 whole entry): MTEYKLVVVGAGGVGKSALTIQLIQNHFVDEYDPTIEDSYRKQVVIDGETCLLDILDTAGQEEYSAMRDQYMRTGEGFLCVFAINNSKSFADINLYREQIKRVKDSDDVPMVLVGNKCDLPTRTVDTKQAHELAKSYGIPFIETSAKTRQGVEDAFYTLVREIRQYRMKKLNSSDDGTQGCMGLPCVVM
HRAS wild-type protein, sequence (P01112 whole entry): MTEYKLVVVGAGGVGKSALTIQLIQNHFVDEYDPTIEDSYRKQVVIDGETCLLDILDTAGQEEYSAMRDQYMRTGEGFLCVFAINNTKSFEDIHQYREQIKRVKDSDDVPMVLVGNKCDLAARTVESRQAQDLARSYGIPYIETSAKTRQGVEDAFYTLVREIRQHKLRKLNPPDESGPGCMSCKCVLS

Structure (SMILES)	NRAS /KRAS [1]	HRAS /KRAS [2]	IC50 [3]
CCC[C@H]1C(=O)N[C@@H]([C@@H](C)CC)C(=O)N(C)CC(=O)N(C)[C@H]2C/C=C\CCN(C2=O)[C@@H](Cc2ccc(C)cc2)C(=O)N(C)CC(=O)N[C@@H](CCc2cc(F)c(C(F)(F)F)c(F)c2)C(=O)N2CC3(CC3)C[C@H]2C(=O)NC2(CC(C)(C)C2)C(=O)N(C)[C@@H](CC(F)(F)F)C(=O)N(C)[C@H](C(=O)N(C)C)CC(=O)N1C [PP3003]	AA (a compound having 20 or more is denoted as AA)	A (a compound having 10 or more and less than 20 is denoted as A)	31.2 nM
CCC[C@H]1C(=O)N[C@@H]([C@@H](C)CC)C(=O)N(C)CC(=O)N(C)[C@H]2C/C=C\CCN(C2=O)[C@@H](Cc2ccc(C)cc2)C(=O)N(C)CC(=O)N[C@@H](CCc2ccc(C(F)(F)F)c(OC)c2)C(=O)N2C[C@H](OCC)C[C@H]2C(=O)NC2(CC(C)(C)C2)C(=O)N(C)[C@@H]([C@@H](C)CC)C(=O)N(C)[C@H](C(=O)N(C)C)CC(=O)N1C [PP3006]	A (a compound having 10 or more and less than 20 is denoted as A)	A (a compound having 10 or more and less than 20 is denoted as A)	14.1 nM
CCC[C@H]1C(=O)N[C@@H]([C@@H](C)CC)C(=O)N(C)CC(=O)N(C)[C@H]2C/C=C\CCN(C2=O)[C@@H](Cc2ccc(C)cc2)C(=O)N(C)CC(=O)N[C@@H](CCc2ccc(C(F)(F)F)c(OC)c2)C(=O)N2CC3(CC3)C[C@H]2C(=O)NC2(CC(C)(C)C2)C(=O)N(C)[C@@H](CC(F)(F)F)C(=O)N(C)[C@H](C(=O)N(C)C)CC(=O)N1C [PP3012]	A (a compound having 10 or more and less than 20 is denoted as A)	A (a compound having 10 or more and less than 20 is denoted as A)	74.8 nM
CCC[C@H]1C(=O)N[C@@H](C2CCCCC2)C(=O)N(C)CC(=O)N(C)[C@H]2C/C=C\CCN(C2=O)[C@@H](Cc2ccc(C(F)(F)F)cc2)C(=O)N(C)CC(=O)N[C@@H](CCc2ccc(C(F)(F)F)c(Cl)c2)C(=O)N2C[C@H](OCC)C[C@H]2C(=O)NC2(CC(C)(C)C2)C(=O)N(C)[C@@H](CC(C)(C)C)C(=O)N(C)[C@H](C(=O)N(C)C)CC(=O)N1C [PP3014]	AA (a compound having 20 or more is denoted as AA)	A (a compound having 10 or more and less than 20 is denoted as A)	20.6 nM
CCC[C@H]1C(=O)N[C@@H](C2CCCCC2)C(=O)N(C)CC(=O)N(C)[C@H]2C/C=C\CCN(C2=O)[C@@H](Cc2ccc(C(F)(F)F)cc2)C(=O)N(C)CC(=O)N[C@@H](CCc2ccc(C(F)(F)F)c(Cl)c2)C(=O)N2C[C@H](OCC)C[C@H]2C(=O)NC2(CC(C)(C)C2)C(=O)N(C)[C@@H]([C@@H](C)CC)C(=O)N(C)[C@H](C(=O)N(C)C)CC(=O)N1C [PP3015]	AA (a compound having 20 or more is denoted as AA)	A (a compound having 10 or more and less than 20 is denoted as A)	103 nM
CCC[C@H]1C(=O)N[C@@H](C2CCCCC2)C(=O)N(C)CC(=O)N(C)[C@H]2C/C=C\CCN(C2=O)[C@@H](Cc2ccc(C(F)(F)F)cc2)C(=O)N(C)CC(=O)N[C@@H](CCc2ccc(C(F)(F)F)c(Cl)c2)C(=O)N2C[C@H](OCC)C[C@H]2C(=O)NC2(CC(C)(C)C2)C(=O)N(C)[C@@H](CC(C)C)C(=O)N(C)[C@H](C(=O)N(C)C)CC(=O)N1C [PP3017]	AA (a compound having 20 or more is denoted as AA)	A (a compound having 10 or more and less than 20 is denoted as A)	46.3 nM
CCC[C@H]1C(=O)N[C@@H](C2CCOCC2)C(=O)N(C)CC(=O)N(C)[C@H]2C/C=C\CCN(C2=O)[C@@H](Cc2ccc(C(F)(F)F)cc2)C(=O)N(C)CC(=O)N[C@@H](CCc2ccc(C(F)(F)F)c(Cl)c2)C(=O)N2C[C@H](OCC)C[C@H]2C(=O)NC2(CC(C)(C)C2)C(=O)N(C)[C@@H](CC(C)(C)C)C(=O)N(C)[C@H](C(=O)N(C)C)CC(=O)N1C [PP3022]	AA (a compound having 20 or more is denoted as AA)	A (a compound having 10 or more and less than 20 is denoted as A)	51.4 nM
CCC(CC)[C@H]1C(=O)N(C)[C@H](C(=O)N(C)C)CC(=O)N(C)[C@@H](COC)C(=O)N[C@@H]([C@@H](C)CC)C(=O)N(C)CC(=O)N(C)[C@H]2C/C=C\CCN(C2=O)[C@@H](Cc2ccc(C(F)(F)F)cc2)C(=O)N(C)CC(=O)N[C@@H](CCc2cc(F)c(C(F)(F)F)c(F)c2)C(=O)N2CCCCC[C@H]2C(=O)NC2(CC(C)(C)C2)C(=O)N1C [PP3030]	AA (a compound having 20 or more is denoted as AA)	A (a compound having 10 or more and less than 20 is denoted as A)	22.4 nM
CCC[C@H]1C(=O)N[C@@H]([C@@H](C)CC)C(=O)N(C)CC(=O)N(C)[C@H]2C/C=C\CCN(C2=O)[C@@H](Cc2ccc(C(F)(F)F)cc2)C(=O)N(C)CC(=O)N[C@@H](CCc2ccc(Cl)c(Cl)c2)C(=O)N2CCCCC[C@H]2C(=O)NC2(CC(C)(C)C2)C(=O)N(C)[C@@H](C(CC)CC)C(=O)N(C)[C@H](C(=O)N(C)C)CC(=O)N1C [PP3031]	AA (a compound having 20 or more is denoted as AA)	A (a compound having 10 or more and less than 20 is denoted as A)	94.2 nM
CCO[C@@H]1C[C@H]2C(=O)NC3(CC(C)(C)C3)C(=O)N(C)[C@@H](C(CC)CC)C(=O)N(C)[C@H](C(=O)N(C)C)CC(=O)N(C)[C@H]3CCCCCCc4ccc(cc4)C[C@@H](C(=O)N(C)CC(=O)N[C@@H](CCc4ccc(C(F)(F)F)c(OC)c4)C(=O)N2C1)N1CC/C=C\C[C@@H](C1=O)N(C)C(=O)CN(C)C(=O)[C@H]([C@@H](C)CC)NC3=O [PP3032]	AA (a compound having 20 or more is denoted as AA)	A (a compound having 10 or more and less than 20 is denoted as A)	2.1 nM
CCO[C@@H]1C[C@H]2C(=O)NC3(CCC3)C(=O)N(C)[C@@H](C3CCCC3)C(=O)N(C)[C@H](C(=O)N3CCCCC3)CC(=O)N(C)[C@H]3CCCCCCc4ccc(cc4)C[C@@H](C(=O)N(C)CC(=O)N[C@@H](CCc4ccc(C(F)(F)F)c(OC)c4)C(=O)N2C1)N1CC/C=C\C[C@@H](C1=O)N(C)C(=O)CN(C)C(=O)[C@H]([C@@H](C)CC)NC3=O [PP3033]	A (a compound having 10 or more and less than 20 is denoted as A)	B (a compound having 3 or more and less than 10 is denoted as B)	4.7 nM
CCO[C@@H]1C[C@H]2C(=O)NC3(CC(C)(C)C3)C(=O)N(C)[C@@H](C3CCCC3)C(=O)N(C)[C@H](C(=O)N3CCCC3)CC(=O)N(C)[C@H]3CCCCCCc4ccc(cc4)C[C@@H](C(=O)N(C)CC(=O)N[C@@H](CCc4ccc(C(F)(F)F)c(OC)c4)C(=O)N2C1)N1CC/C=C\C[C@@H](C1=O)N(C)C(=O)CN(C)C(=O)[C@H]([C@@H](C)CC)NC3=O [PP3034]	A (a compound having 10 or more and less than 20 is denoted as A)	B (a compound having 3 or more and less than 10 is denoted as B)	5.3 nM
CCO[C@@H]1C[C@H]2C(=O)NC3(CC(C)(C)C3)C(=O)N(C)[C@@H](C(CC)CC)C(=O)N(C)[C@H](C(=O)N(C)C)CC(=O)N(C)[C@H]3CCCCCc4ccc(cc4)C[C@@H](C(=O)N(C)CC(=O)N[C@@H](CCc4ccc(C(F)(F)F)c(OC)c4)C(=O)N2C1)N1CC/C=C\C[C@@H](C1=O)N(C)C(=O)CN(C)C(=O)[C@H]([C@@H](C)CC)NC3=O [PP3035]	AA (a compound having 20 or more is denoted as AA)	A (a compound having 10 or more and less than 20 is denoted as A)	4.2 nM
CCO[C@@H]1C[C@H]2C(=O)NC3(CC(C)(C)C3)C(=O)N(C)[C@@H](C3CCCC3)C(=O)N(C)[C@H](C(=O)N3CCCCC3)CC(=O)N(C)[C@H]3CCCCCc4ccc(cc4)C[C@@H](C(=O)N(C)CC(=O)N[C@@H](CCc4ccc(C(F)(F)F)c(OC)c4)C(=O)N2C1)N1CC/C=C\C[C@@H](C1=O)N(C)C(=O)CN(C)C(=O)[C@H]([C@@H](C)CC)NC3=O [PP3036]	A (a compound having 10 or more and less than 20 is denoted as A)	B (a compound having 3 or more and less than 10 is denoted as B)	8 nM
CCO[C@@H]1C[C@H]2C(=O)NC3(CC(C)(C)C3)C(=O)N(C)[C@@H](C3CCCC3)C(=O)N(C)[C@H](C(=O)N3CCCC3)CC(=O)N(C)[C@H]3CCCCCc4ccc(cc4)C[C@@H](C(=O)N(C)CC(=O)N[C@@H](CCc4ccc(C(F)(F)F)c(OC)c4)C(=O)N2C1)N1CC/C=C\C[C@@H](C1=O)N(C)C(=O)CN(C)C(=O)[C@H]([C@@H](C)CC)NC3=O [PP3037]	A (a compound having 10 or more and less than 20 is denoted as A)	B (a compound having 3 or more and less than 10 is denoted as B)	3.4 nM
CCCO[C@@H]1C[C@H]2C(=O)NC3(CC(C)(C)C3)C(=O)N(C)[C@@H](C(CC)CC)C(=O)N(C)[C@H](C(=O)N(C)C)CC(=O)N(C)[C@H]3CCCCc4ccc(cc4)C[C@@H](C(=O)N(C)CC(=O)N[C@@H](CCc4ccc(C(F)(F)F)c(OC)c4)C(=O)N2C1)N1CC/C=C\C[C@@H](C1=O)N(C)C(=O)CN(C)C(=O)[C@H]([C@@H](C)CC)NC3=O [PP3038]	A (a compound having 10 or more and less than 20 is denoted as A)	A (a compound having 10 or more and less than 20 is denoted as A)	3.1 nM
